US20030055244A1, “Pyridyl-containing spirocyclic compounds as inhibitors of fibrinogen-dependent platelet aggregation” (priority 1999, published 2003)
Like-named read-outs stand apart in the source and are kept apart here.

Tests used:
GPIIb-IIIa = target: T1, GPIIb-IIIa (Homo sapiens, UniProt P05106+P08514); experiment: ELISA IIb-IIIa assay (fibrinogen binding to immobilized purified GPIIb-IIIa); details: inhibition of fibrinogen binding to purified GPIIb-IIIa
T1 construct: Purified platelet GPIIb-IIIa receptor was prepared as described by Fitzgerald; from tissue; host or cells: platelets
T1 sequence (P08514 32-887 limits assumed): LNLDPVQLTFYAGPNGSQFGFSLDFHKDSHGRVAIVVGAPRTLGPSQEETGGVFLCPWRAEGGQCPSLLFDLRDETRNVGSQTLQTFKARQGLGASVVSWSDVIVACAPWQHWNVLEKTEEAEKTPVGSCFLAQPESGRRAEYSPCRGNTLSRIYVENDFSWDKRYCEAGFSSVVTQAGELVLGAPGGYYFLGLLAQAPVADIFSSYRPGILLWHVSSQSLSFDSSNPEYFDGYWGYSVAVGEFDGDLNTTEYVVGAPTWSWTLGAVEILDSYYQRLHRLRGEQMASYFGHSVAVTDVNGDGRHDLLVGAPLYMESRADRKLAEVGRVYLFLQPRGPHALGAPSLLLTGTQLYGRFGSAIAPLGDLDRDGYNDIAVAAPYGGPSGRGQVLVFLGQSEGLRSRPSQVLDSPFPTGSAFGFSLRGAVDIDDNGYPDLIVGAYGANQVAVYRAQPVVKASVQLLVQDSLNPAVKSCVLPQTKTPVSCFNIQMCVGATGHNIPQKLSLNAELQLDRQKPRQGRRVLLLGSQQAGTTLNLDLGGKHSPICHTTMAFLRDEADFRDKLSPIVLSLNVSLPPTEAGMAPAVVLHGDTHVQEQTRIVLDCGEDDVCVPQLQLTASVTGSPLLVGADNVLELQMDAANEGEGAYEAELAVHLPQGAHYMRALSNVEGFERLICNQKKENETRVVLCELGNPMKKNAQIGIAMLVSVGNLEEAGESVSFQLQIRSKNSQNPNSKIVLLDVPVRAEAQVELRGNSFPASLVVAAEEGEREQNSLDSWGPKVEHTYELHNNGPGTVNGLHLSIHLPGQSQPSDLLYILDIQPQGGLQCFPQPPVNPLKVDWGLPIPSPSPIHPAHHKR
T1 sequence (P08514 891-1039 limits assumed): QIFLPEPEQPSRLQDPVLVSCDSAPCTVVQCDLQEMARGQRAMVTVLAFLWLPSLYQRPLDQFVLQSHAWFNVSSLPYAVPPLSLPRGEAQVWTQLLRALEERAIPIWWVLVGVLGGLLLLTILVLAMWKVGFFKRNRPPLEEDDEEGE
T1 sequence (P05106 27-788): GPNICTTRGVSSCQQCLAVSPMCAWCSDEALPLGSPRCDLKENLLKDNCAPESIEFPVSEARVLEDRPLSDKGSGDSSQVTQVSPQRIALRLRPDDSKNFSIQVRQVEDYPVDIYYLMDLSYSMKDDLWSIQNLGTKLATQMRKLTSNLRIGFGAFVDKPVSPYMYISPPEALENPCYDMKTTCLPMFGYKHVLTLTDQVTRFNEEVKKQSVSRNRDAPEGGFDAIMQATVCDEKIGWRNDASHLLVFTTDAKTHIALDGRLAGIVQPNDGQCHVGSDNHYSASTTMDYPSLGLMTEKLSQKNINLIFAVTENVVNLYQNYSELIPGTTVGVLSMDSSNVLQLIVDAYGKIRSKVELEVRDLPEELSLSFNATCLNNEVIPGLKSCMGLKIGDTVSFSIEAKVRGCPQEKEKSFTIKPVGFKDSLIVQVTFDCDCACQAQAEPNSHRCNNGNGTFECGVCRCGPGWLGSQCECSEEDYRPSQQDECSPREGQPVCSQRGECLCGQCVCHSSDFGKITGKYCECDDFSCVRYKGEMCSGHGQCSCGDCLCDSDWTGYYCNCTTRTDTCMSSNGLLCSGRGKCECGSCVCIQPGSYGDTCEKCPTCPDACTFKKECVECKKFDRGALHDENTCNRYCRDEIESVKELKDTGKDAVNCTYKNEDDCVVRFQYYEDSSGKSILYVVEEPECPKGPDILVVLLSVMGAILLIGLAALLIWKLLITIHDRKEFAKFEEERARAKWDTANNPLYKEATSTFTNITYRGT
Protocol: No. 1 - The ELISA IIb-IIIa Assay
PIIb-IIIa is coated onto microtiter plates. The coated support is then contacted with fibrinogen and with the test material (e.g., compounds of Formula I) and incubated for a sufficient time to permit maximal binding of fibrinogen to the immobilized GPIIb- Ila. Fibrinogen is typically provided at a concentration of about 5-50 nM and the test material can, if desired, be added at a series of dilution. Typical incubations are 2 to 4 hours at 25° C., the time and temperature being interdependent.
After incubation, the solution containing the fibrinogen and test material is removed and the level of binding of fibrinogen measured by quantitating bound fibrinogen to GPIIb-IIIa. Any suitable means of detection may be used, but it is convenient to employ labeled fibrinogen, for example using biotinylated labels. Such methods are well known in the art.
A. Description of Assays—Plate Assays
After purification, the receptors were stored in 0.1% Triton X-100 at 0.1-1.0 mg/ml.
The receptors were coated to the wells of 96-well flat-bottom ELISA plates (Linbro EIA-Plus microtiter plate, Flow Laboratories) after diluting 1:200 with a solution of 20 mM Tris-HCl, 150 mM NaCl, 1 mM CaCl2, pH 7.4, to reduce the Triton X-100 concentration to below its critical micellar concentration and adding an aliquot of 100 ul to each well. The wells were all allowed to incubate overnight at 4° C., and then aspirated to dryness. Additional sites were blocked by the addition of bovine serum albumin (BSA) at 35 mg/ml in the above buffer for two hours at 30° C. to prevent nonspecific binding. The wells were then washed once with binding buffer ([…] Tris-HCl, 100 mM NaCl 2 mM CaCl2, 1 mg/ml BSA).
The corresponding ligands (fibrinogen, von Willebrand Factor, or vitronectin) were conjugated to biotin using commercially available reagents and standard protocols. The labeled ligands were added to the receptor-coated wells at final concentration of 10 nM (100 ul/well) and incubated for 3 hours at 25° C. in the presence or absence of the test samples. After incubation, the wells are aspirated to dryness and bound ligand is quantitated.
Decreased color development is observed in wells incubated with test samples which inhibit binding of ligand to receptor.

[1] = test system: human platelet-rich plasma; experiment: Platelet aggregation assay (Aggregation-Human PRP/ADP); type: cell-based
Protocol: Platelet-rich plasma was prepared from healthy human volunteers for use in determining inhibition of platelet aggregation by the compounds.
Platelet-rich plasma was prepared at room temperature by centrifugation of the citrated whole blood at 100 × g for twelve minutes. The platelet rich plasma contained approximately 200-400,000 platelets/μl.
Platelet aggregation was assayed in a 4-channel platelet aggregation profiler (PAP-4, Biodata, Hatboro, Pa.) according to the manufacturers directions. Inhibition of platelet aggregation was studied by adding varying amounts of adenosine diphosphate (ADP) to stirred human platelet-rich plasma. Specifically, the human platelet-rich plasma was incubated with the compound being tested for 1 minute at 37° C. prior to the addition of a variety of aggregating agents most often ADP 5 μM to 20 μM, but also 1 μg/ml collagen, 1 μM U46619 and 0.3 μM platelet activating factor.

[2] = test system: human platelet-rich plasma; experiment: as above; type: cell-based; remark: listed apart in the source
[3] = read-out: PRP (ADP-Citrate) IC50

Row | SMILES | IC50 (GPIIb-IIIa) [nM] | IC50 [1, 3] [nM] | IC50 ([2]; read-out: PRP (ADP-PPACK) IC50) [nM] | IC50 ([1]; read-out: PRP (ADP) IC50) [nM] | IC50 ([2]; read-out: PRP (PPACK) IC50) [nM] | IC50 ([1]; read-out: PRP IC50) [nM]
1 | Cc1noc(C)c1S(=O)(=O)N[C@@H](CNC(=O)C1CCC2(CC1)CCN(c1ccncc1)CC2)C(=O)O [Example 13, (2S)-2-{[(3,5-dimethyl-4-isoxazolyl)sulfonyl]amino}-3-({[3-(4-pyridyl)-3-azaspiro [5.5]undec-9-yl]carbonyl}amino)propanoic acid] | 1 | 44 | 68 | – | – | –
2 | Cc1ccc(S(=O)(=O)N[C@@H](CNC(=O)C2CCC3(CC2)CCN(c2ccncc2)CC3)C(=O)O)cc1 [Example 14, (2S)-2-{[(4-methylphenyl)sulfonyl]amino}-3-({[3-(4-pyridyl)-3-azaspiro [5.5]undec-9-yl]carbonyl}amino)propanoic acid] | 1 | 98 | 169 | – | – | –
3 | CCCCS(=O)(=O)N[C@@H](CNC(=O)C1CCC2(CC1)CCN(c1ccncc1)CC2)C(=O)O [Example 15] | 10 | – | – | 168 | 686 | –
4 | O=C(O)COC1CCN(C(=O)N2CCC3(CCN(c4ccncc4)CC3)C2)CC1 [Example 26, 2-((1-((8-(4-pyridyl)-2,8-diazaspiro[4.5]dec-2-yl)carbonyl)-4-piperidyl)oxy)acetic acid] | 457 | 1000 | – | – | – | –
5 | O=C(O)CN1CCN(C(=O)N2CCC3(CCN(c4ccncc4)CC3)C2)CC1=O [Example 27, 2-(2-oxo-4-((8-(4-pyridyl)-2,8-diazaspiro[4.5]dec-2-yl)carbonyl)-4-piperazino) acetic acid] | 35 | 568 | – | – | – | –
6 | O=C(O)CN1CCN(C(=O)N2CCC3(CC2)CCN(c2ccncc2)C3)CC1=O [Example 29, 2-(2-oxo-4-((2-(4-pyridyl)-2,8-diazaspiro[4.5]dec-8-yl)carbonyl)piperazino)acetic acid] | 122 | 2650 | – | – | – | –
7 | O=C(O)CC(=O)N1CCN(C(=O)N2CCC3(CC2)CCN(c2ccncc2)C3)CC1 [Example 31, 3-oxo-3-(4-{[-(4-pyridyl)-2,8-diazaspiro[4.5]dec-8-yl]carbonyl}piperazino) propanoic acid] | – | 660 | 3600 | – | – | –
8 | Cc1noc(C)c1S(=O)(=O)N[C@@H](CCC(=O)N1CCC2(CC1)CCN(c1ccncc1)C2)C(=O)O [Example 34, (2S)-2-{[(3,5-dimethyl-4-isoxazolyl)sulfonyl]amino}-5-oxo-5-[2-(4-pyridyl)-2,8-diazaspiro [4.5]dec-8-yl]pentanoic acid] | 2 | 271 | – | – | – | –
9 | O=C(O)CN1CCN(C(=O)N2CCC3(CC2)CCN(c2ccncc2)C3)CC1 [Example 41] | 252 | – | – | – | – | 8920
10 | O=C(O)CC(=O)N1CCCN(C(=O)N2CCC3(CC2)CCN(c2ccncc2)C3)CC1 [Example 43, 3-oxo-3-(4-{[2-(4-pyridyl)-2,8-diazaspiro[4.5]dec-8-yl]carbonyl}-1,4-diazepan-1-yl) propanoic acid] | 25 | – | – | – | – | 697
11 | O=C(O)COC1CCN(C(=O)N2CCC3(CC2)CCN(c2ccncc2)C3)CC1 [Example 44] | 138 | – | – | – | – | 3780
12 | O=C(O)COCC1CCN(C(=O)N2CCC3(CC2)CCN(c2ccncc2)C3)CC1 [Example 45, 2-[(1-{[2-(4-pyridyl)-2,8-diazaspiro[4.5]dec-8-yl]carbonyl}-4-piperidyl)-methoxy]acetic acid] | 106 | – | – | – | – | 2820
13 | O=C(O)CC(=O)NC1CCN(C(=O)N2CCC3(CC2)CCN(c2ccncc2)C3)C1 (stereo not drawn) [Example 47, 3-oxo-3-[(1-{[2-(4-pyridyl)-2,8-diazaspiro[4.5]dec-8-yl]carbonyl}-tetrahydro-1H-3-pyrrolyl)amino]propanoic acid] | 447 | – | – | – | – | 5860
14 | O=C(O)CCN1CCC(C(=O)N2CCC3(CC2)CCN(c2ccncc2)C3)CC1 [Example 49, 3-(4-{[2-(4-pyridyl)-2,8-diazaspiro[4.5]dec-8-yl]carbonyl}piperidino) propanoic acid] | 17 | – | – | – | – | 1010
15 | O=C(O)CS(=O)(=O)N1CCC(C(=O)N2CCC3(CC2)CCN(c2ccncc2)C3)CC1 [Example 51, ethyl 2-[(4-{[2-(4-pyridyl)-2,8-diazaspiro[4.5]dec-8-yl]carbonyl}-piperidino)sulfonyl]acetic acid] | 94 | 938 | – | – | – | –
16 | O=C(O)Cn1ccc2cc(C(=O)N3CCC4(CC3)CCN(c3ccncc3)C4)ccc21 [Example 53, 2-(5-{[2(4-pyridyl)-2,8-diazaspiro[4,5]dec-8-yl]carbonyl}-1H-1-indolyl) acetic acid] | 47 | 952 | – | – | – | –
17 | O=C(O)Cc1csc(NC(=O)CN2CCC3(CC2)CCN(c2ccncc2)C3)n1 [Example 54, 2-[2-({2-[2-(4-pyridyl)-2,8-diazaspiro[4.5]dec-8-yl]acetyl}amino)-1,3-thiazol-4-yl]acetic acid] | 2280 | 32100 | – | – | – | –
18 | O=C(O)CCNC(=O)N1CCC2(CC1)CCN(c1ccncc1)C2 [Example 55, 3-({[2-(4-pyridyl)-2,8-diazaspiro[4.5]dec-8-yl]carbonyl}amino)propanoic acid] | 28900 | 34600 | – | – | – | –
